The record followed here is patent US11993603B2, “Preparation for 6-amino-1H-pyrazolo[3,4-d]pyrimidine-based JAK kinase inhibitor and application thereof” (INSTITUTE OF MATERIA MEDICA, CHINESE ACADEMY OF MEDICAL …, priority 2018, dated 2024).

Format in all cases: biochemical
One experiment deals with JAK-2 (Homo sapiens (Human), UniProt O60674). In words: Inhibition test on JAK-2 kinase (FRET peptide substrate assay). The settings on record: kinase 1 nM, 1 h at room temperature. The source says: (§1) Experiment Example (Inhibition Tests on JAK-1, JAK-2 and JAK-3 Kinases)
JAK-2, sequence (O60674 whole entry): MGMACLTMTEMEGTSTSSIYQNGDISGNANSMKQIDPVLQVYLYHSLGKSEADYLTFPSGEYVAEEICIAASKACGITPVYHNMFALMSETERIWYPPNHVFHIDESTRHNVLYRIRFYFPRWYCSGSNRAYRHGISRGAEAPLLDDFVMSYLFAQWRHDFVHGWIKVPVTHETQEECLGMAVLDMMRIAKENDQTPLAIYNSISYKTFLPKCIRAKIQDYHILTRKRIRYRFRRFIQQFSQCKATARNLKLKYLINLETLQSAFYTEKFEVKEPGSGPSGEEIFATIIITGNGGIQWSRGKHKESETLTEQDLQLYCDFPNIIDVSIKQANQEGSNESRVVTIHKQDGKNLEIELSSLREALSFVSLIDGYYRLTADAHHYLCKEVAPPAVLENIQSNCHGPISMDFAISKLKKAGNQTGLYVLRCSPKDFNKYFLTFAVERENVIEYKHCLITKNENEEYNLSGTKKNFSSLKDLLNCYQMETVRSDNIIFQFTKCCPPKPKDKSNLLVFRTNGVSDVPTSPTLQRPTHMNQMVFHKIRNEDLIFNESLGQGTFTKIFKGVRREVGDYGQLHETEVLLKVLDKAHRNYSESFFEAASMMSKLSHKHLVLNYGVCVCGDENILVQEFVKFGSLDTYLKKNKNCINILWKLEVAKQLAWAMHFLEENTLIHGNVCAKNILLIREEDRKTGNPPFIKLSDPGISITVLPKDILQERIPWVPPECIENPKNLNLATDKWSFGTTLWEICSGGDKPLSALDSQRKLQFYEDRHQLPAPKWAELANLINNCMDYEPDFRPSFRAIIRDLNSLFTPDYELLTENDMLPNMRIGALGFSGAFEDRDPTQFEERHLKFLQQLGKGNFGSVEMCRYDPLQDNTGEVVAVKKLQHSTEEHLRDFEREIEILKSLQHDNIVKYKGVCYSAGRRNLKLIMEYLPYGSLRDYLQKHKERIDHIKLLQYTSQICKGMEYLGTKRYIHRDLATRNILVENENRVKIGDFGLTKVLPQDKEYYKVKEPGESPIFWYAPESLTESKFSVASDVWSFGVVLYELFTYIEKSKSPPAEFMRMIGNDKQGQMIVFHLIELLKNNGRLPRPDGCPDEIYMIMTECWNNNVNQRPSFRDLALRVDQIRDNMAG
(§2) To evaluate the inhibitory activity of the compound on JAK-1, JAK-2 and JAK-3 kinases
(§3) A proteolytic enzyme is coupled to exert different proteolysis on a specific phosphorylated and nonphosphorylated peptide substrate based on fluorescence resonance energy transfer (FRET). Both ends of the peptide substrate were respectively labeled FRET energy donor coumarin and energy receptor fluorescein, and at this time, the donor was stimulated to produce energy transfer when the donor is close to a receptor.
(§4) In Kinase Reaction, JAK-1, JAK-2 or JAK-3 may transfer γ-phosphoric acid in ATP onto a single tyrosine residue of a peptide substrate; and there were JAK-1, JAK-2 or JAK-3 inhibitors in the system, γ-phosphoric acid groups on ATP would be not transferred onto the peptide substrate, thus resulting in the failure of phosphorylation. An evaluation experiment was designed based on the principle, a peptide substrate was designed with kinase phosphorylation sites, namely, protein restriction enzyme cutting sites; and both ends thereof were respectively connected with 2 fluorophores as a donor and a receptor respectively; if the kinase kept activity in the system, a γ-phosphonic acid group was transferred onto restriction enzyme cutting sites of the substrate, so that the γ-phosphonic acid group would not be cut and separated into two segments by a protease; moreover, under the stimulation of a laser having a specific wavelength, energy from a segment of fluorescence would be transferred onto another end of fluorophores, thus emitting energy. Otherwise, after kinase activity was inhibited, phosphoric acid groups would be not transferred, and restriction enzyme cutting sites in the substrate would be cut by a […] in the system to separate the substrate into two segments, thereby no energy transfer of fluorescence occurred. Based on this, the activity of the kinase was evaluated.
(§5) In this experiment, a 10 μl kinase reaction system was selected, firstly, 2.5 μl kinase (concentration: 1 nM), 2.5 μl peptide substrate (concentration: 2 μM), 2.5 μl ATP (concentration: […]) and 2.5 μl compound were added to each system for reaction for 1 h at room temperature, and then a 5 μl test solution was added for reaction for 1 h at room temperature, then a 5 μl stop buffer was added. A microplate reader (Synergy H1, BioTek, USA) was used to measure fluorescence intensity (emission intensity of coumarin at 445 nm and emission intensity of fluorescein at 520 nm were detected under the stimulation of 400 nm). The inhibitory activity of each compound was calculated, where it was believed that fluorescence intensity of a well not containing the kinase was 100% inhibited.

A further experiment deals with JAK-3 (Homo sapiens (Human), UniProt P52333). The experiment in a line: Inhibition test on JAK-3 kinase (FRET peptide substrate assay).
JAK-3, sequence (P52333 whole entry): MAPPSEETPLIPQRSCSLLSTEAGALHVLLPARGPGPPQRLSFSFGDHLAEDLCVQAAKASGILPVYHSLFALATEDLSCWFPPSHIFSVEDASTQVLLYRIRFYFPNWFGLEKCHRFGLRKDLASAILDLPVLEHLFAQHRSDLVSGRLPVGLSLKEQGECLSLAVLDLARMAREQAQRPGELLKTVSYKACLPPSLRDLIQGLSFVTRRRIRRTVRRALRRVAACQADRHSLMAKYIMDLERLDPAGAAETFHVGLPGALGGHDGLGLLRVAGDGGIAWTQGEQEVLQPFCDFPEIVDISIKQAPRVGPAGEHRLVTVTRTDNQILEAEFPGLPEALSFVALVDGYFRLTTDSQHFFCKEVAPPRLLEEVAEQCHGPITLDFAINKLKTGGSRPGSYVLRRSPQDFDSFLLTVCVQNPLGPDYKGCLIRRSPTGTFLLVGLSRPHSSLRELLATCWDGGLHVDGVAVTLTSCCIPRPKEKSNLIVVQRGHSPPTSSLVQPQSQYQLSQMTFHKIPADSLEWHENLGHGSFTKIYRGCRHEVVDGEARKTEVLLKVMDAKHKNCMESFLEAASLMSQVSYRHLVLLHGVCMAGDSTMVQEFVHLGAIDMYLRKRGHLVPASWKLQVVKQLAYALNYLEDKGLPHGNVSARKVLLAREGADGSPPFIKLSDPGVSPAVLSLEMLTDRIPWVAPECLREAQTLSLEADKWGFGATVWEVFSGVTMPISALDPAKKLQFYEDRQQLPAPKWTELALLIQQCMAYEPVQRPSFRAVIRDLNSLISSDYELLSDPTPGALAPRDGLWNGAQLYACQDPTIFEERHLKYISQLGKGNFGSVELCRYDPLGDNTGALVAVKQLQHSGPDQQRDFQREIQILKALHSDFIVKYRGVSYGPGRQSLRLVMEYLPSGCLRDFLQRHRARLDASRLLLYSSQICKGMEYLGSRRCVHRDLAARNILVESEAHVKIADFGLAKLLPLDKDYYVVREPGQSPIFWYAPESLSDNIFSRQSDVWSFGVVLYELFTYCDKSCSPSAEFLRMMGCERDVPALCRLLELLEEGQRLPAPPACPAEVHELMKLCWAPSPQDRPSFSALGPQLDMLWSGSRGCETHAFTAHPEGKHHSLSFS
Excerpt: as §1, §2, §3, §4, §5

Another experiment deals with JAK-1 (Homo sapiens (Human), UniProt P23458). In words: Inhibition test on JAK-1 kinase (FRET peptide substrate assay). The following applies: kinase 1 nM, 1 h at room temperature.
JAK-1, sequence (P23458 whole entry): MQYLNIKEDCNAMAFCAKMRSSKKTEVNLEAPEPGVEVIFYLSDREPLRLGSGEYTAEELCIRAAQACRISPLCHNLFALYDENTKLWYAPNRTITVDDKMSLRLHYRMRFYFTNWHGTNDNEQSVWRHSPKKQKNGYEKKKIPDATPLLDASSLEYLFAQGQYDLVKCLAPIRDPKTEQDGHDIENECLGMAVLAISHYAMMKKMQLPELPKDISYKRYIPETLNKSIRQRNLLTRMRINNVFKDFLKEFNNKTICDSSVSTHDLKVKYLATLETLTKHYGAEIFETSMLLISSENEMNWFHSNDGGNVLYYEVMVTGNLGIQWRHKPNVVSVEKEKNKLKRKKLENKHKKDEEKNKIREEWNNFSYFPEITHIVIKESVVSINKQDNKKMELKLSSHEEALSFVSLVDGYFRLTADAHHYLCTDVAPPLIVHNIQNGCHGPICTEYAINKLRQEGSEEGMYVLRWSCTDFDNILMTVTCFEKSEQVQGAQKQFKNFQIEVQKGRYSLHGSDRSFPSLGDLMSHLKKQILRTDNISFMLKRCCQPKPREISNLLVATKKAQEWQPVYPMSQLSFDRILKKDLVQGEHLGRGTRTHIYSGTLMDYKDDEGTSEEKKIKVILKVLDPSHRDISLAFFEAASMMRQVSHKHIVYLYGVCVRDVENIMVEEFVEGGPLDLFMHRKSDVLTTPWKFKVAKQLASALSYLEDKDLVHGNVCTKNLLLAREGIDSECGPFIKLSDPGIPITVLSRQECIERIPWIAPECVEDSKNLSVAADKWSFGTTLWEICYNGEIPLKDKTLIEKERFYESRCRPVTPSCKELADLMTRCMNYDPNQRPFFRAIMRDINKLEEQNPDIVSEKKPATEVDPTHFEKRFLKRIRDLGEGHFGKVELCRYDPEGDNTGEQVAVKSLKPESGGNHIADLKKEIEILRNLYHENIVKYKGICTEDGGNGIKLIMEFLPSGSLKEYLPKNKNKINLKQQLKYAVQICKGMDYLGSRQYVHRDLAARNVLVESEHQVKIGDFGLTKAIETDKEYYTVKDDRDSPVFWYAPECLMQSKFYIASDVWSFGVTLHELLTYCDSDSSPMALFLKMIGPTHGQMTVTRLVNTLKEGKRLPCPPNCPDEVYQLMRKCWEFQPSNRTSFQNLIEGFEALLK
Excerpt: as §1, §2, §3, §4, §5

Where [1] appears, read: kinase 1 nM, 1 h at room temperature, read-out: IC50 (nM) JAK-3.

Read-outs that look alike come from different tables or passages of the source.

Usually IC50 stands for the concentration at which inhibition is half-maximal. Regarding `C=CC(=O)Nc1cccc(Cn2ncc3cnc(Nc4cnn(CCOC)c4)nc32)c1` [Example 1, N-(3-((6-((1-(2-methoxyethyl)-1H-pyrazol-4-yl)amino)-1H-pyrazolo[3,4-d]pyrimidine-1-yl)methyl)phenyl)acrylamide], the IC50 on JAK-2 came out at 747 nM; at JAK-3 (differs from Table 5, read-out: JAK-3 inhibitory activity IC50), 0.085 nM; on JAK-3 (setting [1]) it was 1.4 nM.

On to `C=CC(=O)Nc1cccc(Cn2ncc3cnc(Nc4cnn(C)c4)nc32)c1` [Example 2], for which the IC50 on JAK-2 was 941 nM; at JAK-3 (setting [1]), 2.2 nM; on JAK-1 it was 1390 nM.

Regarding `C=CC(=O)Nc1cccc(Cn2ncc3cnc(Nc4cnn(CCO)c4)nc32)c1` [Example 3, N-(3-((6-((1-(2-hydroxyethyl)-1H-pyrazol-4-yl)amino)-1H-pyrazolo[3,4-d]pyrimidin-1-yl)methyl)phenyl)acrylamide], the IC50 worked out at 4220 nM on JAK-2, 0.13 nM at JAK-3 (setting [1]) and 829 nM at JAK-1.

In the case of `C=CC(=O)Nc1cccc(Cn2ncc3cnc(Nc4ccccc4)nc32)c1` [Example 4, N-(3-((6-aniline-1H-pyrazolo[3,4-d]pyrimidin-1-yl)methyl)phenyl)acrylamide], the IC50 at JAK-2 was found to be 1120 nM; on JAK-3 (setting [1]), 1.1 nM; at JAK-1, 901 nM.

Take `C=CC(=O)Nc1cccc(Cn2ncc3cnc(Nc4ccc(F)cc4)nc32)c1` [Example 5, N-(3-((6-((4-fluorophenyl)amino)-1H-pyrazolo[3,4-d]pyrimidin-1-yl)methyl)phenyl)acrylamide]: the results for the IC50 at JAK-2, on JAK-3 (setting [1]) and on JAK-1 were 1800 nM, 3.7 nM and 1580 nM, respectively.

As to `C=CC(=O)Nc1cccc(Cn2ncc3cnc(Nc4ccc(N5CCOCC5)cc4)nc32)c1` [Example 6, N-(3-((6-((4-morpholinylphenyl)amino)-1H-pyrazolo[3,4-d]pyrimidin-1-yl)methyl)phenyl)acrylamide], the results for the IC50 at JAK-2, on JAK-3 (setting [1]) and on JAK-1 were 3100 nM, 0.1 nM and 1000 nM, respectively.

Consider `C=CC(=O)Nc1cccc(Cn2ncc3cnc(Nc4ccc(N5CCN(C)CC5)cc4)nc32)c1` [Example 7, N-(3-((6-((4-(4-methylpiperazin-1-yl)phenyl)amino)-1H-pyrazolo[3,4-d]pyrimidin-1-yl)methyl)phenyl)acrylamide], for which the IC50 at JAK-2 was found to be 1080 nM; on JAK-3 (setting [1]) it was 6.1 nM; at JAK-1, 942 nM.

Consider `C/C=C/C(=O)Nc1cccc(Cn2ncc3cnc(Nc4cnn(CCOC)c4)nc32)c1` [Example 8, N-(3-((6-((1-(2-methoxy-ethyl)-1H-pyrazol-4-yl)amino)-1H-pyrazolo[3,4-d]pyrimidine-1-yl)methyl)phenyl)but-2-enamide], for which the IC50 on JAK-2 came to 610 nM; at JAK-3 (setting [1]) it was 3 nM; at JAK-1 it was 701 nM.

As for `C/C=C/C(=O)Nc1cccc(Cn2ncc3cnc(Nc4cnn(C)c4)nc32)c1` [Example 9, N-(3-((6-((1-methyl-1H-pyrazol-4-yl)amino)-1H-pyrazolo[3,4-d]pyrimidin-1-yl)methyl)phenyl)but-2-enamide], the IC50 stood at 860 nM on JAK-2, 2.1 nM at JAK-3 (setting [1]) and 618 nM on JAK-1.

Regarding `C/C=C/C(=O)Nc1cccc(Cn2ncc3cnc(Nc4cnn(CCO)c4)nc32)c1` [Example 10, N-(3-((6-((1-(2-hydroxyethyl)-1H-pyrazol-4-yl)amino)-1H-pyrazolo[3,4-d]pyrimidin-1-yl)methyl)phenyl)but-2-enamide], the IC50 on JAK-2 was 960 nM; on JAK-3 (setting [1]), 0.7 nM; at JAK-1, 940 nM.

In the case of `C/C=C/C(=O)Nc1cccc(Cn2ncc3cnc(Nc4ccccc4)nc32)c1` [Example 11, N-(3-((6-aniline-1H-pyrazolo[3,4-d]pyrimidin-1-yl)methyl)phenyl)but-2-enamide], the IC50 was found to be 690 nM at JAK-2, 1.4 nM at JAK-3 (setting [1]) and 830 nM on JAK-1.

Regarding `C/C=C/C(=O)Nc1cccc(Cn2ncc3cnc(Nc4ccc(F)cc4)nc32)c1` [Example 12, N-(3-((6-((4-fluorophenyl)amino)-1H-pyrazolo[3,4-d]pyrimidin-1-yl)methyl)phenyl)but-2-enamide], the IC50 worked out at 2310 nM at JAK-2, 0.2 nM at JAK-3 (setting [1]) and 1030 nM on JAK-1.

For the compound `C/C=C/C(=O)Nc1cccc(Cn2ncc3cnc(Nc4ccc(N5CCOCC5)cc4)nc32)c1` [Example 13, N-(3-((6-((4-morpholinylphenyl)amino)-1H-pyrazolo[3,4-d]pyrimidin-1-yl)methyl)phenyl)but-2-enamide], the IC50 at JAK-2 was 710 nM; on JAK-3 (setting [1]) it was 0.4 nM; at JAK-1, 890 nM.

For the compound `C/C=C/C(=O)Nc1cccc(Cn2ncc3cnc(Nc4ccc(N5CCN(C)CC5)cc4)nc32)c1` [Example 14, N-(3-((6-((4-(4-methylpiperazin-1-yl)phenyl)amino)-1H-pyrazolo[3,4-d]pyrimidin-1-yl)methyl)phenyl)but-2-enamide], the IC50 came to 1310 nM on JAK-2, 0.9 nM at JAK-3 (setting [1]) and 274 nM at JAK-1.

Turning to `C=CC(=O)Nc1ccc(Cn2ncc3cnc(Nc4cnn(CCOC)c4)nc32)cc1` [Example 15, N-(4-((6-((1-(2-methoxyethyl)-1H-pyrazol-4-yl)amino)-1H-pyrazolo[3,4-d]pyrimidine-1-yl)methyl)phenyl)acrylamide], the IC50 on JAK-2 worked out at 602 nM; at JAK-3 (setting [1]) it was 0.5 nM; on JAK-1, 1540 nM.

For `C=CC(=O)Nc1ccc(Cn2ncc3cnc(Nc4cnn(C)c4)nc32)cc1` [Example 16, N-(4-((6-((1-methyl-1H-pyrazol-4-yl)amino)-1H-pyrazolo[3,4-d]pyrimidine-1-yl)methyl)phenyl)acrylamide], the IC50 was 770 nM at JAK-2, 1.4 nM on JAK-3 (setting [1]) and 1410 nM on JAK-1.

For `C=CC(=O)Nc1ccc(Cn2ncc3cnc(Nc4cnn(CCO)c4)nc32)cc1` [Example 17, N-(4-((6-((1-(2-hydroxyethyl)-1H-pyrazol-4-yl)amino)-1H-pyrazolo[3,4-d]pyrimidin-1-yl)methyl)phenyl)acrylamide], the IC50 on JAK-2 was 846 nM; at JAK-3 (setting [1]), 2 nM; on JAK-1, 1420 nM.

For the compound `C=CC(=O)Nc1ccc(Cn2ncc3cnc(Nc4ccccc4)nc32)cc1` [Example 18, N-(4-((6-aniline-1H-pyrazolo[3,4-d]pyrimidin-1-yl)methyl)phenyl)acrylamide], the IC50 at JAK-2 is 1280 nM; on JAK-3 (setting [1]) it was 2.8 nM; on JAK-1, 1990 nM.

As to `C=CC(=O)Nc1ccc(Cn2ncc3cnc(Nc4ccc(F)cc4)nc32)cc1` [Example 19, N-(4-((6-((4-fluorophenyl)amino)-1H-pyrazolo[3,4-d]pyrimidin-1-yl)methyl)phenyl)acrylamide], the IC50 on JAK-2 came out at 1800 nM; on JAK-3 (setting [1]), 3.7 nM; on JAK-1, 1580 nM.

Take `C=CC(=O)Nc1ccc(Cn2ncc3cnc(Nc4ccc(N5CCOCC5)cc4)nc32)cc1` [Example 20, N-(4-((6-((4-morpholinylphenyl)amino)-1H-pyrazolo[3,4-d]pyrimidin-1-yl)methyl)phenyl)acrylamide]: the IC50 came out at 892 nM on JAK-2, 1.7 nM at JAK-3 (setting [1]) and 934 nM on JAK-1.

For the compound `C=CC(=O)Nc1ccc(Cn2ncc3cnc(Nc4ccc(N5CCN(C)CC5)cc4)nc32)cc1` [Example 21, N-(4-((6-((4-(4-methylpiperazin-1-yl)phenyl)amino)-1H-pyrazolo[3,4-d]pyrimidin-1-yl)methyl)phenyl)acrylamide], the IC50 is 1800 nM on JAK-2, 0.2 nM on JAK-3 (setting [1]) and 2850 nM at JAK-1.

For `C/C=C/C(=O)Nc1ccc(Cn2ncc3cnc(Nc4cnn(CCOC)c4)nc32)cc1` [Example 22, N-(4-((6-((1-(2-methoxy-ethyl)-1H-pyrazol-4-yl)amino)-1H-pyrazolo[3,4-d]pyrimidine-1-yl)methyl)phenyl)but-2-enamide], the values for the IC50 at JAK-2, at JAK-3 (setting [1]) and at JAK-1 were 1250 nM, 2 nM and 918 nM, respectively.

Consider `C/C=C/C(=O)Nc1ccc(Cn2ncc3cnc(Nc4cnn(C)c4)nc32)cc1` [Example 23, N-(4-((6-((1-methyl-1H-pyrazol-4-yl)amino)-1H-pyrazolo[3,4-d]pyrimidin-1-yl)methyl)phenyl)but-2-enamide], for which the IC50 on JAK-2 turned out to be 697 nM; at JAK-3 (setting [1]), 0.1 nM; at JAK-1 it was 940 nM.
